Measurements published in patent US6358885B1, “Substituted phenylheterocyclic herbicides” (Mississippi State University, priority 1992, dated 2002).

Legend:
Test in all cases: Test F preemergence/postemergence greenhouse plant response rating 0 to 100
field violet = format: in vivo, Viola arvensis; settings: POSTEMERGENCE, 0 to 100 scale
Text: (§1) Compounds evaluated in this test were formulated in a non-phytoxic solvent and applied to the soil surface before plant seedlings emerged (preemergence application) and to plants that were in the one-to-four leaf stage (postemergence application). A sandy loam soil was used for the preemergence test while a mixture of sandy loam soil and greenhouse potting mix in a 60:40 ratio was used for the postemergence test. Test compounds were applied within approximately one day after planting seeds for the preemergence test. Plantings of these crops and weed species were adjusted to produce plants of appropriate size for the postemergence test. All plant species were grown using normal greenhouse practices. Crop and weed species include winter barley (Hordeum vulgare cv. ‘Igri’), blackgrass (Alopecurus myosuroides), chickweed (Stellaria media), downy brome (Bromus tectorum), field violet (Viola arvensis), galium (Galium aparine), green foxtail (Setaria viridis), kochia (Kochia scoparia), lambsquarters (Chenopodium album), speedwell (Veronica persica), rape (Brassica napus), ryegrass (Lolium multiflorum), sugar beet (Beta vulgaris cv. ‘USl’), sunflower (Helianthus annuus cv. ‘Russian Giant’), spring wheat (Triticum aestivum cv. ‘ERA’), winter wheat (Triticum aestivum cv. ‘Talent’), wild buckwheat (Polygonum convolvulus), wild mustard (Sinapis arvensis), wild oat (Avena fatua), and wild radish (Raphanus raphanistrum). Blackgrass, galium and wild oat were treated at two growth stages. […] Treated plants and untreated controls were maintained in a greenhouse for approximately 21 to 28 days, after which all treated plants were compared to untreated controls and visually evaluated. […] A dash response (-) means no test result.

galium = format: in vivo, Galium aparine; settings: POSTEMERGENCE, 0 to 100 scale; for Galium (1) plant response rating: stage (1) two to three leaves; for Galium (2) plant response rating: stage (2) approximately four leaves or initial tillering
Text: as §1

sugar beet = format: in vivo, Beta vulgaris cv. ‘USl’; settings: POSTEMERGENCE, 0 to 100 scale
Text: as §1

chickweed = format: in vivo, Stellaria media; settings: POSTEMERGENCE, 0 to 100 scale
Text: as §1

winter barley = format: in vivo, Hordeum vulgare cv. ‘Igri’; settings: POSTEMERGENCE, 0 to 100 scale
Text: as §1

wild buckwheat = format: in vivo, Polygonum convolvulus; settings: POSTEMERGENCE, 0 to 100 scale
Text: as §1

ryegrass = format: in vivo, Lolium multiflorum; settings: POSTEMERGENCE, 0 to 100 scale
Text: as §1

blackgrass = format: in vivo, Alopecurus myosuroides; settings: POSTEMERGENCE, 0 to 100 scale; for Blackgrass (1) plant response rating: stage (1) two to three leaves; for Blackgrass (2) plant response rating: stage (2) approximately four leaves or initial tillering
Text: as §1

spring wheat = format: in vivo, Triticum aestivum cv. ‘ERA’; settings: POSTEMERGENCE, 0 to 100 scale
Text: as §1

sunflower = format: in vivo, Helianthus annuus cv. ‘Russian Giant’; settings: POSTEMERGENCE, 0 to 100 scale
Text: as §1

wild radish = format: in vivo, Raphanus raphanistrum; settings: POSTEMERGENCE, 0 to 100 scale
Text: as §1

speedwell = format: in vivo, Veronica persica; settings: POSTEMERGENCE, 0 to 100 scale
Text: as §1

winter wheat = format: in vivo, Triticum aestivum cv. ‘Talent’; settings: POSTEMERGENCE, 0 to 100 scale
Text: as §1

downy brome = format: in vivo, Bromus tectorum; settings: POSTEMERGENCE, 0 to 100 scale
Text: as §1

In the case of Fc1cc(Cl)c(OCCCl)cc1-c1nn2c(c1Cl)CCCC2 [Compound 49], the “Field violet plant response rating” value (field violet; Rate 8 g/ha) is reported as 60, the “Field violet plant response rating” value (field violet; Rate 16 g/ha) is reported as 60 and the “Field violet plant response rating” value (field violet; Rate 32 g/ha) is reported as 100. The “Galium (1) plant response rating” value (galium; Rate 2 g/ha) was 0, the “Galium (2) plant response rating” value (galium; Rate 2 g/ha) was 0 and the “Galium (1) plant response rating” value (galium; Rate 4 g/ha) was 30. For the same compound, the “Galium (2) plant response rating” value (galium; Rate 4 g/ha) was 30, the “Galium (1) plant response rating” value (galium; Rate 8 g/ha) was 35 and the “Galium (2) plant response rating” value (galium; Rate 8 g/ha) was 30. The “Galium (1) plant response rating” value (galium; Rate 16 g/ha) was 40, the “Galium (2) plant response rating” value (galium; Rate 16 g/ha) was 40 and the “Galium (1) plant response rating” value (galium; Rate 32 g/ha) was 40. The “Galium (2) plant response rating” value (galium; Rate 32 g/ha) was 40, the “Sugar beet plant response rating” value (sugar beet; Rate 2 g/ha) was 70 and the “Sugar beet plant response rating” value (sugar beet; Rate 4 g/ha) was 100. The “Sugar beet plant response rating” value (sugar beet; Rate 8 g/ha) was 100, the “Sugar beet plant response rating” value (sugar beet; Rate 32 g/ha) was 100 and the “Chickweed plant response rating” value (chickweed; Rate 2 g/ha) was 0. For the same compound, the “Chickweed plant response rating” value (chickweed; Rate 4 g/ha) was 0, the “Chickweed plant response rating” value (chickweed; Rate 8 g/ha) was 20 and the “Chickweed plant response rating” value (chickweed; Rate 16 g/ha) was 50. For the same compound, the “Chickweed plant response rating” value (chickweed; Rate 32 g/ha) was 60, the “Winter Barley plant response rating” value (winter barley; Rate 2 g/ha) was 0 and the “Winter Barley plant response rating” value (winter barley; Rate 4 g/ha) was 0. The “Winter Barley plant response rating” value (winter barley; Rate 8 g/ha) was 10, the “Winter Barley plant response rating” value (winter barley; Rate 16 g/ha) was 10 and the “Winter Barley plant response rating” value (winter barley; Rate 32 g/ha) was 20. The “Wild buckwheat plant response rating” value (wild buckwheat; Rate 2 g/ha) was 100, the “Wild buckwheat plant response rating” value (wild buckwheat; Rate 4 g/ha) was 100 and the “Wild buckwheat plant response rating” value (wild buckwheat; Rate 8 g/ha) was 100. For the same compound, the “Wild buckwheat plant response rating” value (wild buckwheat; Rate 16 g/ha) was 100, the “Wild buckwheat plant response rating” value (wild buckwheat; Rate 32 g/ha) was 100 and the “Ryegrass plant response rating” value (ryegrass; Rate 2 g/ha) was 0. For the same compound, the “Ryegrass plant response rating” value (ryegrass; Rate 4 g/ha) was 0, the “Ryegrass plant response rating” value (ryegrass; Rate 8 g/ha) was 0 and the “Ryegrass plant response rating” value (ryegrass; Rate 16 g/ha) was 0. The “Ryegrass plant response rating” value (ryegrass; Rate 32 g/ha) was 20, the “Blackgrass (1) plant response rating” value (blackgrass; Rate 2 g/ha) was 0 and the “Blackgrass (2) plant response rating” value (blackgrass; Rate 2 g/ha) was 0. For the same compound, the “Blackgrass (1) plant response rating” value (blackgrass; Rate 4 g/ha) was 0, the “Blackgrass (2) plant response rating” value (blackgrass; Rate 4 g/ha) was 0 and the “Blackgrass (1) plant response rating” value (blackgrass; Rate 8 g/ha) was 0. For the same compound, the “Blackgrass (2) plant response rating” value (blackgrass; Rate 8 g/ha) was 0, the “Blackgrass (1) plant response rating” value (blackgrass; Rate 16 g/ha) was 0 and the “Blackgrass (2) plant response rating” value (blackgrass; Rate 16 g/ha) was 0. The “Blackgrass (1) plant response rating” value (blackgrass; Rate 32 g/ha) was 0, the “Blackgrass (2) plant response rating” value (blackgrass; Rate 32 g/ha) was 10 and the “Wheat (Spring) plant response rating” value (spring wheat; Rate 2 g/ha) was 0. The “Wheat (Spring) plant response rating” value (spring wheat; Rate 4 g/ha) was 0, the “Wheat (Spring) plant response rating” value (spring wheat; Rate 8 g/ha) was 0 and the “Wheat (Spring) plant response rating” value (spring wheat; Rate 16 g/ha) was 10. For the same compound, the “Wheat (Spring) plant response rating” value (spring wheat; Rate 32 g/ha) was 20, the “Sunflower plant response rating” value (sunflower; Rate 2 g/ha) was 0 and the “Sunflower plant response rating” value (sunflower; Rate 4 g/ha) was 0. For the same compound, the “Sunflower plant response rating” value (sunflower; Rate 8 g/ha) was 0, the “Sunflower plant response rating” value (sunflower; Rate 16 g/ha) was 0 and the “Sunflower plant response rating” value (sunflower; Rate 32 g/ha) was 0. The “Wild radish plant response rating” value (wild radish; Rate 2 g/ha) was 0, the “Wild radish plant response rating” value (wild radish; Rate 4 g/ha) was 0 and the “Wild radish plant response rating” value (wild radish; Rate 8 g/ha) was 10. The “Wild radish plant response rating” value (wild radish; Rate 16 g/ha) was 100, the “Persn Speedwell plant response rating” value (speedwell; Rate 2 g/ha) was 50 and the “Persn Speedwell plant response rating” value (speedwell; Rate 4 g/ha) was 50. For the same compound, the “Persn Speedwell plant response rating” value (speedwell; Rate 8 g/ha) was 60, the “Persn Speedwell plant response rating” value (speedwell; Rate 16 g/ha) was 100 and the “Persn Speedwell plant response rating” value (speedwell; Rate 32 g/ha) was 100. For the same compound, the “Wheat (Winter) plant response rating” value (winter wheat; Rate 2 g/ha) was 0, the “Wheat (Winter) plant response rating” value (winter wheat; Rate 4 g/ha) was 10 and the “Wheat (Winter) plant response rating” value (winter wheat; Rate 8 g/ha) was 10. The “Wheat (Winter) plant response rating” value (winter wheat; Rate 16 g/ha) was 10, the “Wheat (Winter) plant response rating” value (winter wheat; Rate 32 g/ha) was 20 and the “Downy brome plant response rating” value (downy brome; Rate 2 g/ha) was 0. The “Downy brome plant response rating” value (downy brome; Rate 4 g/ha) was 0, the “Downy brome plant response rating” value (downy brome; Rate 8 g/ha) was 0 and the “Downy brome plant response rating” value (downy brome; Rate 16 g/ha) was 10. The “Downy brome plant response rating” value (downy brome; Rate 32 g/ha) was 10.
For C#CC(C)N1C(=O)COc2cc(F)c(-c3nn4c(c3Cl)CCCC4)cc21 (centres unmarked) [Compound 50], the “Field violet plant response rating” value (field violet; Rate 16 g/ha) was 100, the “Field violet plant response rating” value (field violet; Rate 32 g/ha) was 100 and the “Field violet plant response rating” value (field violet; Rate 64 g/ha) was 100. For the same compound, the “Field violet plant response rating” value (field violet; Rate 125 g/ha) was 100, the “Galium (1) plant response rating” value (galium; Rate 16 g/ha) was 100 and the “Galium (2) plant response rating” value (galium; Rate 16 g/ha) was 100. The “Galium (1) plant response rating” value (galium; Rate 32 g/ha) was 100, the “Galium (2) plant response rating” value (galium; Rate 32 g/ha) was 100 and the “Galium (1) plant response rating” value (galium; Rate 64 g/ha) was 100. The “Galium (2) plant response rating” value (galium; Rate 64 g/ha) was 100, the “Galium (1) plant response rating” value (galium; Rate 125 g/ha) was 100 and the “Galium (2) plant response rating” value (galium; Rate 125 g/ha) was 100. The “Sugar beet plant response rating” value (sugar beet; Rate 16 g/ha) was 100, the “Sugar beet plant response rating” value (sugar beet; Rate 32 g/ha) was 100 and the “Sugar beet plant response rating” value (sugar beet; Rate 64 g/ha) was 100. For the same compound, the “Sugar beet plant response rating” value (sugar beet; Rate 125 g/ha) was 100, the “Chickweed plant response rating” value (chickweed; Rate 16 g/ha) was 70 and the “Chickweed plant response rating” value (chickweed; Rate 32 g/ha) was 100. The “Chickweed plant response rating” value (chickweed; Rate 64 g/ha) was 100, the “Chickweed plant response rating” value (chickweed; Rate 125 g/ha) was 100 and the “Winter Barley plant response rating” value (winter barley; Rate 16 g/ha) was 0. For the same compound, the “Winter Barley plant response rating” value (winter barley; Rate 32 g/ha) was 0, the “Winter Barley plant response rating” value (winter barley; Rate 64 g/ha) was 0 and the “Winter Barley plant response rating” value (winter barley; Rate 125 g/ha) was 50. For the same compound, the “Wild buckwheat plant response rating” value (wild buckwheat; Rate 16 g/ha) was 40, the “Wild buckwheat plant response rating” value (wild buckwheat; Rate 32 g/ha) was 100 and the “Wild buckwheat plant response rating” value (wild buckwheat; Rate 64 g/ha) was 100. The “Wild buckwheat plant response rating” value (wild buckwheat; Rate 125 g/ha) was 100, the “Ryegrass plant response rating” value (ryegrass; Rate 16 g/ha) was 0 and the “Ryegrass plant response rating” value (ryegrass; Rate 32 g/ha) was 0. The “Ryegrass plant response rating” value (ryegrass; Rate 64 g/ha) was 0, the “Ryegrass plant response rating” value (ryegrass; Rate 125 g/ha) was 10 and the “Blackgrass (1) plant response rating” value (blackgrass; Rate 16 g/ha) was 0. The “Blackgrass (2) plant response rating” value (blackgrass; Rate 16 g/ha) was 0, the “Blackgrass (1) plant response rating” value (blackgrass; Rate 32 g/ha) was 0 and the “Blackgrass (2) plant response rating” value (blackgrass; Rate 32 g/ha) was 0. The “Blackgrass (1) plant response rating” value (blackgrass; Rate 64 g/ha) was 0, the “Blackgrass (2) plant response rating” value (blackgrass; Rate 64 g/ha) was 0 and the “Blackgrass (1) plant response rating” value (blackgrass; Rate 125 g/ha) was 40. The “Blackgrass (2) plant response rating” value (blackgrass; Rate 125 g/ha) was 20, the “Wheat (Spring) plant response rating” value (spring wheat; Rate 16 g/ha) was 0 and the “Wheat (Spring) plant response rating” value (spring wheat; Rate 32 g/ha) was 0. The “Wheat (Spring) plant response rating” value (spring wheat; Rate 64 g/ha) was 0, the “Wheat (Spring) plant response rating” value (spring wheat; Rate 125 g/ha) was 10 and the “Sunflower plant response rating” value (sunflower; Rate 16 g/ha) was 40. For the same compound, the “Sunflower plant response rating” value (sunflower; Rate 32 g/ha) was 60, the “Sunflower plant response rating” value (sunflower; Rate 64 g/ha) was 60 and the “Sunflower plant response rating” value (sunflower; Rate 125 g/ha) was 100. For the same compound, the “Wild radish plant response rating” value (wild radish; Rate 16 g/ha) was 50, the “Wild radish plant response rating” value (wild radish; Rate 32 g/ha) was 50 and the “Wild radish plant response rating” value (wild radish; Rate 64 g/ha) was 55. For the same compound, the “Wild radish plant response rating” value (wild radish; Rate 125 g/ha) was 70, the “Persn Speedwell plant response rating” value (speedwell; Rate 16 g/ha) was 100 and the “Persn Speedwell plant response rating” value (speedwell; Rate 32 g/ha) was 100. For the same compound, the “Persn Speedwell plant response rating” value (speedwell; Rate 64 g/ha) was 100, the “Persn Speedwell plant response rating” value (speedwell; Rate 125 g/ha) was 100 and the “Wheat (Winter) plant response rating” value (winter wheat; Rate 16 g/ha) was 0. The “Wheat (Winter) plant response rating” value (winter wheat; Rate 32 g/ha) was 0, the “Wheat (Winter) plant response rating” value (winter wheat; Rate 64 g/ha) was 0 and the “Wheat (Winter) plant response rating” value (winter wheat; Rate 125 g/ha) was 0. The “Downy brome plant response rating” value (downy brome; Rate 16 g/ha) was 0, the “Downy brome plant response rating” value (downy brome; Rate 32 g/ha) was 0 and the “Downy brome plant response rating” value (downy brome; Rate 64 g/ha) was 0. For the same compound, the “Downy brome plant response rating” value (downy brome; Rate 125 g/ha) was 0.
